In ChEMBL document CHEMBL2331518, “Rapid microwave-enhanced synthesis of C5-alkynyl pyranonucleosides as novel cytotoxic antitumor agents” (Bioorg Med Chem Lett, 2013):
pIC50: −log10 of the molar value. Activity calls are given as the source filed them. The rule behind the calls is not given here.

Columns and labels:
[1] = tested on: HeLa; assay: Cytotoxicity against human HeLa cells after 72 hrs; assay type: functional, cell-based
[2] = tested on: L1210; assay: Cytotoxicity against mouse L1210 cells after 48 hrs; assay type: functional, cell-based; conditions: L1210, 48 h
[3] = tested on: CCRF-CEM; assay: Cytotoxicity against human CEM cells after 72 hrs; assay type: functional, cell-based
[4] = tested on: Influenza A virus; assay: Antiviral activity against Influenza A virus H3N2 by cell based assay; assay type: functional, organism-based
[5] = tested on: Human immunodeficiency virus 2; assay: Antiviral activity against HIV2 ROD infected in human CEM cells assessed as reduction of virus-induced cytopathicity after 4 to 5 days; assay type: functional, organism-based; conditions: ISOLATE ROD, CCRF-CEM
[6] = tested on: Vesicular stomatitis virus; assay: Antiviral activity against Vesicular stomatitis virus by cell based assay; assay type: functional, organism-based
[7] = tested on: Respiratory syncytial virus; assay: Antiviral activity against Respiratory syncytial virus Long by cell based assay; assay type: functional, organism-based
[8] = tested on: Human immunodeficiency virus 1; assay: Antiviral activity against HIV1 3B infected in human CEM cells assessed as reduction of virus-induced cytopathicity after 4 to 5 days; assay type: functional, organism-based; conditions: CCRF-CEM
[9] = tested on: Vaccinia virus; assay: Antiviral activity against Vaccinia virus Lederle by cell based assay; assay type: functional, organism-based; conditions: Orthopoxvirus vaccinia
[10] = tested on: Human alphaherpesvirus 1; assay: Antiviral activity against HSV-1 KOS by cell based assay; assay type: functional, organism-based
[11] = tested on: Influenza B virus; assay: Antiviral activity against Influenza B virus by cell based assay; assay type: functional, organism-based
[12] = tested on: Mammalian orthoreovirus 1; assay: Antiviral activity against Reovirus-1 by cell based assay; assay type: functional, organism-based
[13] = tested on: Sindbis virus; assay: Antiviral activity against Sindbis virus by cell based assay; assay type: functional, organism-based
[14] = tested on: Coxsackievirus B4; assay: Antiviral activity against Coxsackie virus B4 by cell based assay; assay type: functional, organism-based
[15] = tested on: Human alphaherpesvirus 2; assay: Antiviral activity against HSV-2 G by cell based assay; assay type: functional, organism-based; conditions: strain G
[16] = tested on: Human respirovirus 3; assay: Antiviral activity against Parainfluenza-3 virus by cell based assay; assay type: functional, organism-based
[17] = tested on: Influenza A virus; assay: Antiviral activity against Influenza A virus H1N1 by cell based assay; assay type: functional, organism-based
[18] = tested on: Human alphaherpesvirus 2; assay: Antiviral activity against HSV-2 Lyons by cell based assay; assay type: functional, organism-based
[19] = tested on: Human alphaherpesvirus 1; assay: Antiviral activity against kinase-deficient acyclovir-resistant HSV-1 KOS by cell based assay; assay type: functional, organism-based
[20] = tested on: Punta Toro virus; assay: Antiviral activity against Punta Toro virus by cell based assay; assay type: functional, organism-based

| SMILES | pIC50 [1] | pIC50 [2] | pIC50 [3] | Activity [4] | Activity [5] | Activity [6] | Activity [7] | Activity [8] | Activity [9] | Activity [10] | Activity [11] | Activity [12] | Activity [13] | Activity [14] | Activity [15] | Activity [16] | Activity [17] | Activity [18] | Activity [19] | Activity [20] |
| --- | --- | --- | --- | --- | --- | --- | --- | --- | --- | --- | --- | --- | --- | --- | --- | --- | --- | --- | --- | --- |
| CCCC#Cc1cn([C@@H]2O[C@H](CO)[C@@H](O)[C@H](O)[C@H]2O)c(=O)nc1N | 3.72 | ≤ 3.60 | < 3.60 | – | – | – | – | – | – | – | – | – | – | – | – | – | – | – | – | – |
| O=c1[nH]c(=O)n([C@@H]2O[C@H](CO)[C@@H](O)[C@H](O)[C@H]2O)cc1C#Cc1cccnc1 | < 3.60 | < 3.60 | < 3.60 | inactive | inactive | inactive | inactive | inactive | inactive | inactive | inactive | inactive | inactive | inactive | inactive | inactive | inactive | inactive | inactive | inactive |
| Nc1nc(=O)n([C@@H]2O[C@H](CO)[C@@H](O)[C@H](O)[C@H]2O)cc1C#Cc1ccccc1 | 3.70 | ≤ 3.60 | < 3.60 | – | – | – | – | – | – | – | – | – | – | – | – | – | – | – | – | – |
| CC(=O)OC[C@H]1O[C@@H](n2cc(C#Cc3cccnc3)c(=O)[nH]c2=O)[C@H](OC(C)=O)[C@@H](OC(C)=O)[C@@H]1OC(C)=O | < 3.60 | < 3.60 | 3.74 | – | – | – | – | – | – | – | – | – | – | – | – | – | – | – | – | – |
| CC(=O)OC[C@H]1O[C@@H](n2cc(C#Cc3ccc[n+](C)c3)c(=O)[nH]c2=O)[C@H](OC(C)=O)[C@@H](OC(C)=O)[C@@H]1OC(C)=O | < 3.60 | < 3.60 | < 3.60 | – | – | – | – | – | – | – | – | – | – | – | – | – | – | – | – | – |
| CCCCCC#Cc1cn([C@@H]2O[C@H](CO)[C@@H](O)[C@H](O)[C@H]2O)c(=O)[nH]c1=O | 4.54 | 4.66 | 4.59 | – | – | – | – | – | – | – | – | – | – | – | – | – | – | – | – | – |
| CC(C)(C)c1ccc(C#Cc2cn([C@@H]3O[C@H](CO)[C@@H](O)[C@H](O)[C@H]3O)c(=O)nc2O)cc1 | 4.43 | 3.73 | < 3.60 | – | – | – | – | – | – | – | – | – | – | – | – | – | – | – | – | – |
| O=c1[nH]c(=O)n([C@@H]2O[C@H](CO)[C@@H](O)[C@H](O)[C@H]2O)cc1C#Cc1ccccn1 | 4.18 | 4.15 | 4.10 | inactive | inactive | inactive | inactive | inactive | inactive | inactive | inactive | inactive | inactive | inactive | inactive | inactive | inactive | inactive | inactive | inactive |
| CC(=O)OC[C@H]1O[C@@H](n2cc(C#Cc3cccc[n+]3C)c(=O)[nH]c2=O)[C@H](OC(C)=O)[C@@H](OC(C)=O)[C@@H]1OC(C)=O | 3.63 | 3.69 | < 3.60 | – | – | – | – | – | – | – | – | – | – | – | – | – | – | – | – | – |
| CC(C)(C)c1ccc(C#Cc2cn([C@@H]3O[C@H](CO)[C@@H](O)[C@H](O)[C@H]3O)c(=O)nc2N)cc1 | 3.85 | < 3.60 | < 3.60 | – | – | – | – | – | – | – | – | – | – | – | – | – | – | – | – | – |
| CCCCCc1cc2cn([C@@H]3O[C@H](CO)[C@@H](O)[C@H](O)[C@H]3O)c(=O)nc2o1 | < 3.60 | ≤ 3.60 | < 3.60 | inactive | inactive | inactive | inactive | inactive | inactive | inactive | inactive | inactive | inactive | inactive | inactive | inactive | inactive | inactive | inactive | inactive |
| CCCCCc1ccc(C#Cc2cn([C@@H]3O[C@H](CO)[C@@H](O)[C@H](O)[C@H]3O)c(=O)nc2N)cc1 | 4.37 | 3.88 | 3.94 | – | – | – | – | – | – | – | – | – | – | – | – | – | – | – | – | – |
| CCCc1cc2cn([C@@H]3O[C@H](CO)[C@@H](O)[C@H](O)[C@H]3O)c(=O)nc2o1 | 3.90 | 3.88 | 3.76 | inactive | inactive | inactive | inactive | inactive | inactive | inactive | inactive | inactive | inactive | inactive | inactive | inactive | inactive | inactive | inactive | inactive |
| C#Cc1cn([C@@H]2O[C@H](CO)[C@@H](O)[C@H](O)[C@H]2O)c(=O)[nH]c1=O | 3.64 | 3.85 | < 3.60 | – | – | – | – | – | – | – | – | – | – | – | – | – | – | – | – | – |
| C[n+]1ccccc1C#Cc1cn([C@@H]2O[C@H](CO)[C@@H](O)[C@H](O)[C@H]2O)c(=O)[nH]c1=O | 3.61 | 3.82 | < 3.60 | inactive | inactive | inactive | inactive | inactive | inactive | inactive | inactive | inactive | inactive | inactive | inactive | inactive | inactive | inactive | inactive | inactive |
| C[n+]1cccc(C#Cc2cn([C@@H]3O[C@H](CO)[C@@H](O)[C@H](O)[C@H]3O)c(=O)[nH]c2=O)c1 | < 3.60 | < 3.60 | < 3.60 | inactive | inactive | inactive | inactive | inactive | inactive | inactive | inactive | inactive | inactive | inactive | inactive | inactive | inactive | inactive | inactive | inactive |
| CCCCCc1ccc(C#Cc2cn([C@@H]3O[C@H](CO)[C@@H](O)[C@H](O)[C@H]3O)c(=O)nc2O)cc1 | 4.51 | 4.15 | 4.09 | – | – | – | – | – | – | – | – | – | – | – | – | – | – | – | – | – |
| O=c1[nH]c(=O)n([C@@H]2O[C@H](CO)[C@@H](O)[C@H](O)[C@H]2O)cc1CCc1ccccc1 | 4.37 | 3.52 | 3.61 | – | – | – | – | – | – | – | – | – | – | – | – | – | – | – | – | – |
| CCCC#Cc1cn([C@@H]2O[C@H](CO)[C@@H](O)[C@H](O)[C@H]2O)c(=O)[nH]c1=O | 4.02 | 3.94 | 3.91 | – | – | – | – | – | – | – | – | – | – | – | – | – | – | – | – | – |
| C#Cc1cn([C@@H]2O[C@H](CO)[C@@H](O)[C@H](O)[C@H]2O)c(=O)nc1N | ≤ 3.60 | ≤ 3.60 | < 3.60 | – | – | – | – | – | – | – | – | – | – | – | – | – | – | – | – | – |
| O=c1nc(O)c(C#Cc2ccccc2)cn1[C@@H]1O[C@H](CO)[C@@H](O)[C@H](O)[C@H]1O | 5.27 | 5.21 | 5.28 | inactive | inactive | inactive | inactive | inactive | inactive | inactive | inactive | inactive | inactive | inactive | inactive | inactive | inactive | inactive | inactive | inactive |
| CCCCCC#Cc1cn([C@@H]2O[C@H](CO)[C@@H](O)[C@H](O)[C@H]2O)c(=O)nc1N | ≤ 3.60 | ≤ 3.60 | < 3.60 | – | – | – | – | – | – | – | – | – | – | – | – | – | – | – | – | – |
| CC(=O)OC[C@H]1O[C@@H](n2cc(C#Cc3ccccn3)c(=O)[nH]c2=O)[C@H](OC(C)=O)[C@@H](OC(C)=O)[C@@H]1OC(C)=O | 4.05 | 3.94 | 3.86 | – | – | – | – | – | – | – | – | – | – | – | – | – | – | – | – | – |
